{"source": "paper PMC11574045", "about": "“A cofactor-induced repressive type of transcription factor condensation can be induced by synthetic peptides to suppress tumorigenesis” (The EMBO Journal, 2024)", "key": {"CTGF mRNA": {"tested_on": "CTGF mRNA", "test": "RT-PCR of TEAD4 target genes", "assay_type": "cell-based", "protocol": "For RT-PCR, total RNA was isolated from cells using RNA Isolator Total RNA Extraction Reagent (Vazyme) according to the manufacturer’s instructions. The isolated RNA was reverse transcribed into cDNA using HiScpt II (Vazyme). Quantitative RT-PCR was performed using a CFX96^TM Real-Time system (Bio-Rad) and SYBR Green PCR master mix (Yeasen). The fold change in the gene expression was calculated using the comparative Ct method, and three replicates were tested for each cDNA sample. ACTB was used as an internal reference. Transcript copies of TEAD4 were determined by generating standard curves using plasmid DNA (TEAD4). Each experiment was repeated at least three times. The sequences of the primers are listed in Appendix Table S1."}, "[1]": {"tested_on": "MYC / CYR61 promoter-enhancer interactions in HEK293FT cells", "test": "Chromatin conformation capture (3C) assay", "assay_type": "cell-based", "details": "VGLL4-overexpressing HEK293FT cells + 1,6-Hex; three biological replicates", "protocol": "The 3C assay was performed following a protocol described previously ([…] et al, [2007]). Briefly, cells were incubated with 0.05% trypsin for 10 min before detaching. Collected cells were cross-linked with 2% formaldehyde for 10 min, followed by treatment with 0.125 M glycine for 5 min to quench the cross-linking reaction. Cells were then pelleted and incubated with a lysis buffer (10 mM Tris-HCl pH 7.5, 10 mM NaCl, 5 mM MgCl2 and 0.1 mM EGTA) at 4 °C for 15 min. Resulting pelleted nuclei were digested with Hind-III restriction enzyme (NEB) at 37 °C overnight and subsequently ligated with T4 DNA ligase (NEB) at 16 °C for 4 h. Thereafter, the samples were incubated at 65 °C overnight to de-crosslink the protein-DNA complexes and were subjected to phenol-chloroform extraction and ethanol precipitation to obtain the 3C templates. Primers flanking the Hind-III restriction sites located close to TEAD4-targeted gene CYR61 (Xie et al, [2019]) or MYC (Zanconato et al, [2015]) promoter (anchor primers) and enhancers were used to quantitively measure the promoter-enhancer interactions. The primers used are listed in Appendix Table S1."}, "[2]": {"tested_on": "CTGF promoter occupancy in HEK293FT cells", "test": "ChIP-qPCR", "assay_type": "cell-based", "details": "VGLL4-overexpressing HEK293FT cells + 1,6-Hex; three biological replicates", "protocol": "ChIP was carried out following a procedure previously described (An et al, [2018]). Briefly, cells were first cross-linked with freshly prepared formaldehyde (final concentration 1.42%) for 15 min, followed by addition of glycine (125 mM) for 5 min at room temperature. After a two-round wash with cold PBS, cells were scraped and collected by centrifuge. Resulting pelleted cells were resuspended in 400 μl of ChIP lysis buffer (50 mM HEPES/KOH, pH 7.5; 140 mM NaCl; 1 mM EDTA; 1% Triton X-100; 0.1% Na-deoxycholate and protease inhibitors) and subjected to sonication with Bioruptor at high power for 15 cycles (30 s on and 30 s off for each cycle) to shear the chromatin. Samples were then further diluted twice with lysis buffer and the diluted samples were centrifuged to clear the supernatants. Meanwhile, eighty microliters of each of the supernatants were directly processed to extract total DNA as whole-cell input. […] Prewashed protein A/G beads (L2118; Santa Cuz) were added into these samples, which were then incubated for another 3 h. These incubated samples were washed five times with ChIP lysis buffer and then mixed with 100 μl of 10% chelex (1421253; Bio-Rad), followed by being boiled for 10 min and centrifuged at 4 °C for 1 min. Resulting supernatants were transferred to new tubes. Subsequently, another 120 μl of MilliQ water were added to each fraction of beads pellet, and the resulting mixtures were vortexed for 10 s, and then centrifuged again to spin down the beads. The supernatants were combined as templates for follow-up qPCR analysis."}, "HGC-27 cells": {"tested_on": "HGC-27 cells", "test": "siRNA screening based on cell growth", "parameters": "species or system human", "details": "Figure 2B source data; siRNA against the named gene; Z score based analysis", "protocol": "For screening based on cell growth, HGC-27 cells (2000 per well) were seeded into a 96-well plate overnight. The individual siRNAs targeting 192 BioID-identified genes were then added into each well to a final concentration of 25 nM. After subsequent incubation for 48 h, the cells were analyzed using an ATP-based CellCounting-Lite^TM 2.0 reagent (Vazyme, Nanjing, China) according to the manufacturer’s instructions. The intracellular ATP contents were measured using an EnSight™ Multimode Microplate Reader (Perkin Elmer)."}, "GFP-TEAD4 condensates": {"tested_on": "GFP-TEAD4 condensates", "test": "siRNA screening based on TEAD4 condensate", "assay_type": "cell-based", "details": "Figure 2B source data; siRNA against the named gene; Z score based analysis", "protocol": "siRNA reagents were obtained from the Dharmacon Human ON-TARGETplus siRNA Smartpool Library (Thermo) as described previously (Tang et al, [2020]). […] Lipofectamine RNAiMAX reagent (Thermo) at a volume of 0.05 μl per well was then added to the siRNA-loaded plates. Subsequently, cells expressing GFP-TEAD4 were seeded into the plate at 2000 cells per well. After subsequent transfection for 48 h, the cells were fixed with 4% PFA at room temperature for 30 min. DAPI was used to identify individual nuclei. The plates were kept at 4 °C in the dark before being analyzed using the Opera system. Twenty focus fields per well were scanned and analyzed. Scrambled siRNA was used as an internal reference on each plate."}, "[3]": {"tested_on": "GFP-TEAD4 condensates in HEK293FT cells", "test": "GFP-TEAD4 condensate imaging, condensed fraction in cells", "assay_type": "cell-based", "details": "Figure 2D source data, GFP-TEAD4 condensates with co-expressed cofactor, with or without 1,6-Hex, single measurement"}, "[4]": {"tested_on": "HEK293FT cells transfected with TF library", "test": "Screening of TF condensates based on fluorescent puncta", "assay_type": "cell-based", "details": "Figure 1B numerical data; TF library screen, one value per transcriptional factor", "protocol": "TF plasmids were automatically added to black-walled 384-well plates at 80 ng per well to reach a final concentration of 1.6 μg/ml. Polyethylenimine (PEI, Sigma) was then added to the plasmid-loaded plates at 240 ng per well (4.8 μg/ml). Subsequently, HEK293FT cells were seeded into the plate at 2000 cells per well. After 60 h, cells were cultured in medium with or without glucose for 12 h, and then fixed with 4% paraformaldehyde (PFA) at room temperature for 30 min. After three washes with PBS, fixed cells were permeabilized with 0.05% Triton X-100 for 15 min. Thereafter, cells were blocked with 5% BSA for 1 h, and then incubated overnight with anti-Flag (Sigma F3165, 1:200) and anti-GAL4 (Abbkine ABP57232, 1:200) primary antibodies at 4 °C. The cells were then gently washed with PBS, followed by being incubated with Alexa Fluor Plus 488 goat anti-mouse IgG secondary antibody (Thermo A32723, 1:400) or Alexa Fluor Plus 488 goat anti-rabbit IgG secondary antibody (Thermo A32731, 1:400) for 1 h. The plates were kept at 4 °C in the dark before being analyzed using an Opera System (Perkin Elmer). Fifty random fields per well were scanned and analyzed using the Columbus Plus Image Data Storage and Analysis System (Perkin Elmer)."}}, "note": "Where “and” joins values, the source holds several entries; their conditions need not be identical. Equal entries are not always repeated."}
{"molecule": "OCCCCCCO", "note": "[1,6-Hex, 1,6-hexanediol]", "values": [{"measurement": "Effect on GLUP-induced CTGF downregulation", "setting": "CTGF mRNA; GLUP-treated cells with or without 1,6-Hex, mRNA", "result": "obviously abrogated GLUP-induced downregulation of CTGF"}, {"measurement": "CTGF mRNA level", "setting": "CTGF mRNA; VGLL4-overexpressing HEK293FT cells + 1,6-Hex 0.25% v/v, three biological replicates", "result": "1.31 and 0.86 and 1.18"}, {"measurement": "3C interaction promoter-enhance1 (MYC locus)", "setting": "[1]", "result": "0.8 and 0.75 and 0.85"}, {"measurement": "3C interaction promoter-enhance 4 (MYC locus)", "setting": "[1]", "result": "0.8 and 0.65 and 0.74"}, {"measurement": "ChIP-qPCR enrichment of CTCF on CTGF promoter", "setting": "[2]", "result": "0.0726 and 0.0717 and 0.0639"}, {"measurement": "ChIP-qPCR enrichment of H3K27ac on CTGF promoter", "setting": "[2]", "result": "0.0982 and 0.0959 and 0.0952"}, {"measurement": "ChIP-qPCR enrichment of RNA Pol II on CTGF promoter", "setting": "[2]", "result": "0.1941 and 0.1778 and 0.182"}]}
{"molecule": "RCOR3", "values": [{"measurement": "Z score of cell growth", "setting": "HGC-27 cells", "result": 0.05778}, {"measurement": "Z score of condensed fraction", "setting": "GFP-TEAD4 condensates", "result": 1.432}]}
{"molecule": "VGLL4: transcriptional cofactor protein with two TDU domains binding TEAD4", "values": [{"measurement": "Z score of cell growth", "setting": "HGC-27 cells", "result": 3.062}, {"measurement": "Condensed fraction", "setting": "[3]; replicate 1 of 9", "result": 31.2622, "unit": "%"}, {"measurement": "Condensed fraction", "setting": "[3]; replicate 2 of 9", "result": 58.3357, "unit": "%"}, {"measurement": "Condensed fraction", "setting": "[3]; replicate 3 of 9", "result": 38.0997, "unit": "%"}, {"measurement": "Condensed fraction", "setting": "[3]; replicate 4 of 9", "result": 50.0073, "unit": "%"}, {"measurement": "Condensed fraction", "setting": "[3]; replicate 5 of 9", "result": 50.0033, "unit": "%"}, {"measurement": "Condensed fraction", "setting": "[3]; replicate 6 of 9", "result": 46.4819, "unit": "%"}, {"measurement": "Condensed fraction", "setting": "[3]; replicate 7 of 9", "result": 42.8861, "unit": "%"}, {"measurement": "Condensed fraction", "setting": "[3]; replicate 8 of 9", "result": 42.8738, "unit": "%"}, {"measurement": "Condensed fraction", "setting": "[3]; replicate 9 of 9", "result": 35.7201, "unit": "%"}, {"measurement": "Z score of condensed fraction", "setting": "GFP-TEAD4 condensates", "result": -4.055}]}
{"molecule": "ZNF517", "values": [{"measurement": "Z score of condensed fraction", "setting": "[4]", "result": -0.6071}]}
{"molecule": "ZNF529", "values": [{"measurement": "Z score of condensed fraction", "setting": "[4]", "result": -0.8409}]}
{"molecule": "ZNF530", "values": [{"measurement": "Z score of condensed fraction", "setting": "[4]", "result": -0.1863}]}
{"molecule": "ZNF540", "values": [{"measurement": "Z score of condensed fraction", "setting": "[4]", "result": -0.9698}]}
{"molecule": "ZNF548", "values": [{"measurement": "Z score of condensed fraction", "setting": "[4]", "result": 1.7562}]}
{"molecule": "ZNF549", "values": [{"measurement": "Z score of condensed fraction", "setting": "[4]", "result": 2.12}]}
{"molecule": "ZNF556", "values": [{"measurement": "Z score of condensed fraction", "setting": "[4]", "result": -0.2629}]}
{"molecule": "ZNF562", "values": [{"measurement": "Z score of condensed fraction", "setting": "[4]", "result": 1.118}]}
{"molecule": "ZNF572", "values": [{"measurement": "Z score of condensed fraction", "setting": "[4]", "result": -0.6768}]}
{"molecule": "ZNF587", "values": [{"measurement": "Z score of condensed fraction", "setting": "[4]", "result": 0.9024}]}
{"molecule": "ZNF596", "values": [{"measurement": "Z score of condensed fraction", "setting": "[4]", "result": -0.5741}]}
{"molecule": "ZNF621", "values": [{"measurement": "Z score of condensed fraction", "setting": "[4]", "result": -0.6157}]}
{"molecule": "ZNF626", "values": [{"measurement": "Z score of condensed fraction", "setting": "[4]", "result": 2.964}]}
{"molecule": "ZNF643", "values": [{"measurement": "Z score of condensed fraction", "setting": "[4]", "result": 2.053}]}
{"molecule": "ZNF670", "values": [{"measurement": "Z score of condensed fraction", "setting": "[4]", "result": 2.5783}]}
{"molecule": "ZNF677", "values": [{"measurement": "Z score of condensed fraction", "setting": "[4]", "result": -0.6787}]}
{"molecule": "ZNF679", "values": [{"measurement": "Z score of condensed fraction", "setting": "[4]", "result": -1.052}]}
{"molecule": "ZNF680", "values": [{"measurement": "Z score of condensed fraction", "setting": "[4]", "result": -0.6442}]}
{"molecule": "ZNF689", "values": [{"measurement": "Z score of condensed fraction", "setting": "[4]", "result": -0.54}]}
{"molecule": "ZNF695", "values": [{"measurement": "Z score of condensed fraction", "setting": "[4]", "result": -0.08978}]}
{"molecule": "ZNF707", "values": [{"measurement": "Z score of condensed fraction", "setting": "[4]", "result": 0.9339}]}
{"molecule": "ZNF747", "values": [{"measurement": "Z score of condensed fraction", "setting": "[4]", "result": 1.603}]}
{"molecule": "ZNF768", "values": [{"measurement": "Z score of condensed fraction", "setting": "[4]", "result": -0.6686}]}
{"molecule": "ZNF785", "values": [{"measurement": "Z score of condensed fraction", "setting": "[4]", "result": -0.4418}]}
{"molecule": "ZNF829", "values": [{"measurement": "Z score of condensed fraction", "setting": "[4]", "result": 0.6314}]}
{"molecule": "ZSCAN2", "values": [{"measurement": "Z score of condensed fraction", "setting": "[4]", "result": -0.2191}]}
{"molecule": "ZSCAN22", "values": [{"measurement": "Z score of condensed fraction", "setting": "[4]", "result": -0.5621}]}
{"molecule": "ZSCAN23", "values": [{"measurement": "Z score of condensed fraction", "setting": "[4]", "result": 0.2133}]}
